Reference: ChEMBL document CHEMBL4420076, “Amylin and calcitonin receptor agonist” (2017)
Numbered stars: 1 amine (or outer) side, 2 acyl side, 3 side chain; on linkers, the order of the positions; unused ones are H or OH. Peptide text beside a SMILES is read from it. * marks the point of attachment. C20 diacid = O=C(O)CCCCCCCCCCCCCCCCCCC(=O)*; C18 diacid = O=C(O)CCCCCCCCCCCCCCCCC(=O)*; γGlu = O=C(O)[C@H](CCC(=O)[*:2])N[*:1]

Columns and labels:
[1] = biological target: T1, Amylin receptor AMY3; CALCR/RAMP3 (Homo sapiens, UniProt O60896+P30988); experiment: Agonist activity at human amylin receptor expressed in BHK570 cells co-expressing RAMP3 assessed as increase in intracellular cAMP concentration incubated for 3 hrs in absence of albumin by CRE luciferase reporter gene assay; type: functional, cell-based
T1 sequence (P30988 whole entry): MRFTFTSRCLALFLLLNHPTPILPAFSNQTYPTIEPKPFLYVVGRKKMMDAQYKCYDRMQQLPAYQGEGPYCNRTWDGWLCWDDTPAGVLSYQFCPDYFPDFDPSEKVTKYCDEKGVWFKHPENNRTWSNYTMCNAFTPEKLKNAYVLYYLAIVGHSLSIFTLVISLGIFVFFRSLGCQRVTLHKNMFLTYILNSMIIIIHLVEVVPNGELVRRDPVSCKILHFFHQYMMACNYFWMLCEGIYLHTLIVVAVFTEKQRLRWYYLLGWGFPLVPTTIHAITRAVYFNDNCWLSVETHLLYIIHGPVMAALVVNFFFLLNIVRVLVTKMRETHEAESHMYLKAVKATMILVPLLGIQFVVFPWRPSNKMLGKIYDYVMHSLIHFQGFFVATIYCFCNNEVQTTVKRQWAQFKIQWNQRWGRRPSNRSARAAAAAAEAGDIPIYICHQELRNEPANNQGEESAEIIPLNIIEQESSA
T1 sequence (O60896 whole entry): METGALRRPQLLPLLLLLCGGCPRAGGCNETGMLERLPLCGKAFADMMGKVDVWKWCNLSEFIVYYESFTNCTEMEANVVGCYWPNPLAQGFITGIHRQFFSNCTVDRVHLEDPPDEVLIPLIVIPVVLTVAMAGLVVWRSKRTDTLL

[2] = Solubility in 100 mM bistrispropane buffer at pH 8.0 incubated for 18 hrs by UPLC analysis; type: physicochemical
Rattus norvegicus [3] = experiment: Reduction in food intake in Sprague-Dawley rat at 3 nmol/kg measured 0 to 24 hrs post dose relative to control; type: functional; parameters: scale not given: the % may be the effect or the level left
[4] = Solubility in 100 mM bistrispropane buffer at pH 7.5 incubated for 18 hrs by UPLC analysis; type: physicochemical
Rattus norvegicus [5] = experiment: Reduction in food intake in Sprague-Dawley rat at 3 nmol/kg measured 24 to 48 hrs post dose relative to control; type: functional; parameters: scale not given: the % may be the effect or the level left
[6] = Solubility in 100 mM glycylglycine buffer at pH 3.0 incubated for 18 hrs by UPLC analysis; type: physicochemical
[7] = Solubility in 100 mM glycylglycine buffer at pH 5.0 incubated for 18 hrs by UPLC analysis; type: physicochemical
Calcitonin receptor [8] = biological target: T2, Calcitonin receptor (Homo sapiens, UniProt P30988); experiment: Agonist activity at human calcitonin receptor expressed in BHK570 cells assessed as increase in intracellular cAMP concentration incubated for 3 hrs in absence of albumin by CRE luciferase reporter gene assay; type: functional, cell-based
T2 sequence (P30988 whole entry): T1 sequence (P30988 whole entry)

[9] = Solubility in 100 mM glycylglycine buffer at pH 4.0 incubated for 18 hrs by UPLC analysis; type: physicochemical
[10] = Solubility in 100 mM bistrispropane buffer at pH 7.0 incubated for 18 hrs by UPLC analysis; type: physicochemical
[11] = Solubility in 100 mM bistrispropane buffer at pH 6.5 incubated for 18 hrs by UPLC analysis; type: physicochemical
[12] = Solubility in 100 mM bistrispropane buffer at pH 6.0 incubated for 18 hrs by UPLC analysis; type: physicochemical
[13] = biological target: T1, Amylin receptor AMY3; CALCR/RAMP3; experiment: Displacement of [125I]-labeled rat amylin from human amylin receptor expressed in BHK tkts13 whole cells co-expressing RAMP3 incubated for 60 mins by scintillation proximity assay; type: cell-based
Calcitonin receptor [14] = biological target: T2, Calcitonin receptor; experiment: Agonist activity at human calcitonin receptor expressed in BHK570 cells assessed as increase in intracellular cAMP concentration incubated for 3 hrs in presence of 10% FBS by CRE luciferase reporter gene assay; type: functional, cell-based
[15] = biological target: T1, Amylin receptor AMY3; CALCR/RAMP3; experiment: Agonist activity at human amylin receptor expressed in BHK570 cells co-expressing RAMP3 assessed as increase in intracellular cAMP concentration incubated for 3 hrs in presence of 10% FBS by CRE luciferase reporter gene assay; type: functional, cell-based

| SMILES | EC50 [1] [nM] | solubility at 18 h [2] [µM] | solubility at 18 h [4] [µM] | solubility at 18 h [6] [µM] | solubility at 18 h [7] [µM] | EC50 (Calcitonin receptor [8]) [nM] | solubility at 18 h [9] [µM] | solubility at 18 h [10] [µM] | solubility at 18 h [11] [µM] | solubility at 18 h [12] [µM] | IC50 [13] [nM] | EC50 (Calcitonin receptor [14]) [nM] | EC50 [15] [nM] | Activity (Rattus norvegicus [3]) [%] | Activity (Rattus norvegicus [5]) [%] |
| --- | --- | --- | --- | --- | --- | --- | --- | --- | --- | --- | --- | --- | --- | --- | --- |
| CC(C)C[C@H](NC(=O)[C@H](CCC(=O)O)NC(=O)[C@H](Cc1cnc[nH]1)NC(=O)[C@H](CC(C)C)NC(=O)[C@H](CCC(=O)O)NC(=O)[C@H](C)NC(=O)[C@H](CO)NC(=O)[C@H](CC(C)C)NC(=O)[C@H](CCCNC(=N)N)NC(=O)CNC(=O)[C@H](CC(C)C)NC(=O)[C@@H](NC(=O)[C@H](C)NC(=O)[C@@H](NC(=O)[C@H](CO)NC(=O)[C@H](CC(C)C)NC(=O)[C@H](CCC(=O)O)NC(=O)[C@H](CO)NC(=O)[C@H](C)NC(=O)[C@H](CCC(=O)O)NC(=O)CCCCCCCCCCCCCCCCC(=O)O)[C@@H](C)O)C(C)C)C(=O)N[C@@H](C)C(=O)N[C@H](C(=O)N[C@@H](CC(C)C)C(=O)N1CCC[C@H]1C(=O)N[C@@H](CCCNC(=N)N)C(=O)N[C@H](C(=O)N[C@@H](CCC(=O)O)C(=O)N[C@H](C(=O)NCC(=O)N1CCC[C@H]1C(=O)N[C@@H](CCC(=O)O)C(=O)N[C@@H](CO)C(=O)N1CCC[C@H]1C(N)=O)[C@@H](C)O)[C@@H](C)O)[C@@H](C)O ({C18 diacid}-EASELSTAVLGRLSAELHELATLPRTETGPESP-NH2) | 0.012 | ≥ 200 | ≥ 200 | ≥ 200 | ≥ 200 | 0.009 | ≥ 200 | ≥ 200 | ≥ 200 | ≥ 200 | 0.796 |  |  | 58.5 | 39 |
| CC(C)C[C@H](NC(=O)CNC(=O)[C@H](CO)NC(=O)[C@H](C)NC(=O)CC[C@H](NC(=O)CCCCCCCCCCCCCCCCCCC(=O)O)C(=O)O)C(=O)N[C@@H](CO)C(=O)N[C@H](C(=O)N[C@@H](C)C(=O)N[C@@H](C)C(=O)N[C@@H](CC(C)C)C(=O)NCC(=O)N[C@@H](CCCNC(=N)N)C(=O)N[C@@H](CC(C)C)C(=O)N[C@@H](CO)C(=O)N[C@@H](CCC(=O)O)C(=O)N[C@@H](CCC(=O)O)C(=O)N[C@@H](CC(C)C)C(=O)N[C@@H](Cc1cnc[nH]1)C(=O)N[C@@H](CCC(=O)O)C(=O)N[C@@H](CC(C)C)C(=O)N[C@@H](CCC(N)=O)C(=O)N[C@H](C(=O)N[C@@H](Cc1ccc(O)cc1)C(=O)N1CCC[C@H]1C(=O)N[C@@H](CCCNC(=N)N)C(=O)N[C@H](C(=O)N[C@@H](CCC(=O)O)C(=O)N[C@H](C(=O)NCC(=O)N[C@@H](CO)C(=O)NCC(=O)N[C@H](C(=O)N[C@@H](Cc1ccc(O)cc1)C(N)=O)[C@@H](C)O)[C@@H](C)O)[C@@H](C)O)[C@@H](C)O)[C@@H](C)O ({C20 diacid-γGlu}-ASGLSTAALGRLSEELHELQTYPRTETGSGTY-NH2) | 0.036 | ≥ 200 | ≥ 200 | ≥ 200 |  | 0.021 |  | ≥ 200 | ≥ 200 | ≥ 200 |  | 0.057 | 0.159 | 21 | 6 |

The remaining compounds from weak to strong by EC50 [1], led by results:

| EC50 [1] [nM] | solubility at 18 h [2] [µM] | solubility at 18 h [4] [µM] | solubility at 18 h [6] [µM] | solubility at 18 h [7] [µM] | EC50 (Calcitonin receptor [8]) [nM] | solubility at 18 h [9] [µM] | solubility at 18 h [10] [µM] | solubility at 18 h [11] [µM] | solubility at 18 h [12] [µM] | IC50 [13] [nM] | EC50 (Calcitonin receptor [14]) [nM] | EC50 [15] [nM] | SMILES | Activity (Rattus norvegicus [3]) [%] | Activity (Rattus norvegicus [5]) [%] |
| --- | --- | --- | --- | --- | --- | --- | --- | --- | --- | --- | --- | --- | --- | --- | --- |
| 0.025 |  |  | ≥ 200 |  |  | ≥ 200 |  |  |  | 2.56 |  | 0.565 | CC(C)C[C@H](NC(=O)CNC(=O)[C@H](CO)NC(=O)[C@H](CC(C)C)NC(=O)[C@H](CCC(=O)O)NC(=O)CC[C@H](NC(=O)CCCCCCCCCCCCCCCCCCC(=O)O)C(=O)O)C(=O)N[C@@H](CO)C(=O)N[C@H](C(=O)N[C@@H](CC(C)C)C(=O)N[C@H](C(=O)N[C@@H](CC(C)C)C(=O)NCC(=O)N[C@@H](CCCNC(=N)N)C(=O)N[C@@H](CC(C)C)C(=O)N[C@@H](CO)C(=O)N[C@@H](CCC(N)=O)C(=O)N[C@@H](CCC(=O)O)C(=O)N[C@@H](CC(C)C)C(=O)N[C@@H](Cc1cnc[nH]1)C(=O)N[C@@H](CCC(=O)O)C(=O)N[C@@H](CC(C)C)C(=O)N[C@@H](CCC(N)=O)C(=O)N[C@H](C(=O)N[C@@H](Cc1ccc(O)cc1)C(=O)N1CCC[C@H]1C(=O)N[C@@H](CCCNC(=N)N)C(=O)N[C@H](C(=O)NCC(=O)N[C@H](C(=O)NCC(=O)N[C@@H](CO)C(=O)NCC(=O)N[C@H](C(=O)N[C@@H](Cc1ccc(O)cc1)C(N)=O)[C@@H](C)O)[C@@H](C)O)[C@@H](C)O)[C@@H](C)O)C(C)C)[C@@H](C)O ({C20 diacid-γGlu}-ELSGLSTLVLGRLSQELHELQTYPRTGTGSGTY-NH2) | 32 | 0 |
| 0.014 | ≥ 200 | ≥ 200 | ≥ 200 | ≥ 200 | 0.006 | ≥ 200 | ≥ 200 | ≥ 200 | ≥ 200 | 0.383 |  |  | CC(C)C[C@H](NC(=O)[C@H](CCC(=O)O)NC(=O)[C@H](Cc1cnc[nH]1)NC(=O)[C@H](CC(C)C)NC(=O)[C@H](CCC(=O)O)NC(=O)[C@H](C)NC(=O)[C@H](CO)NC(=O)[C@H](CC(C)C)NC(=O)[C@H](CCCNC(=N)N)NC(=O)CNC(=O)[C@H](CC(C)C)NC(=O)[C@@H](NC(=O)[C@H](C)NC(=O)[C@@H](NC(=O)[C@H](CO)NC(=O)[C@H](CC(C)C)NC(=O)[C@H](CCC(=O)O)NC(=O)[C@H](CO)NC(=O)[C@H](C)NC(=O)[C@H](CCC(=O)O)NC(=O)CCCCCCCCCCCCCCCCC(=O)O)[C@@H](C)O)C(C)C)C(=O)N[C@@H](C)C(=O)N[C@H](C(=O)N[C@@H](CC(C)C)C(=O)N1CCC[C@H]1C(=O)N1CCC[C@H]1C(=O)N[C@H](C(=O)N[C@@H](CCC(=O)O)C(=O)N[C@H](C(=O)NCC(=O)N1CCC[C@H]1C(=O)N[C@@H](CCC(=O)O)C(=O)N[C@@H](CO)C(=O)N1CCC[C@H]1C(N)=O)[C@@H](C)O)[C@@H](C)O)[C@@H](C)O ({C18 diacid}-EASELSTAVLGRLSAELHELATLPPTETGPESP-NH2) | 62 | 12 |
| 0.008 | ≥ 200 | ≥ 200 | ≥ 200 | ≥ 200 | 0.007 | ≥ 200 | ≥ 200 | ≥ 200 | ≥ 200 | 0.375 |  |  | CC(C)C[C@H](NC(=O)[C@H](CCC(=O)O)NC(=O)[C@H](Cc1cnc[nH]1)NC(=O)[C@H](CC(C)C)NC(=O)[C@H](CCC(=O)O)NC(=O)[C@H](C)NC(=O)[C@H](CO)NC(=O)[C@H](CC(C)C)NC(=O)[C@H](CCCNC(=N)N)NC(=O)CNC(=O)[C@H](CC(C)C)NC(=O)[C@@H](NC(=O)[C@H](C)NC(=O)[C@@H](NC(=O)[C@H](CO)NC(=O)[C@H](CC(C)C)NC(=O)[C@H](CCC(=O)O)NC(=O)[C@H](CO)NC(=O)[C@@H]1CCCN1C(=O)[C@H](CCC(=O)O)NC(=O)CCCCCCCCCCCCCCCCC(=O)O)[C@@H](C)O)C(C)C)C(=O)N[C@@H](C)C(=O)N[C@H](C(=O)N[C@@H](CC(C)C)C(=O)N1CCC[C@H]1C(=O)N[C@@H](CCCNC(=N)N)C(=O)N[C@H](C(=O)N[C@@H](CCC(=O)O)C(=O)N[C@H](C(=O)NCC(=O)N1CCC[C@H]1C(=O)N[C@@H](CCC(=O)O)C(=O)N[C@@H](CO)C(=O)N1CCC[C@H]1C(N)=O)[C@@H](C)O)[C@@H](C)O)[C@@H](C)O ({C18 diacid}-EPSELSTAVLGRLSAELHELATLPRTETGPESP-NH2) | 84 | 77 |
